In US11317626B2, “Forchlorfenuron mixtures and uses thereof” (Valent BioSciences LLC, priority 2018, dated 2022):

Columns and labels:
Type in all cases: in vivo
[1] = system: Prunus (stone fruit) plants; assay: Example 5: bud break and shoot growth of Prunus (stone fruit) plants in greenhouse; settings: for Fresh Weight at Harvest, FW: combined new shoot fresh weight, harvest at 28 days; for 50% BB: days after treatment to 50% bud break
Procedure: (§1) To determine if the mixtures provided unexpected results, the observed combined efficacy (“OCE”) was divided by the expected combined efficacy (“ECE”) wherein the expected ECE is calculated by the Abbott method: ECE=A+B−(AB/100), • wherein ECE is the expected combined efficacy and in which A and B are the speed of bud break relative to control, the number of buds broken per plant relative to control, shoot length relative to control or shoot weight relative to control given by the single active ingredients. If the ratio between the OCE of the mixture and the ECE of the mixture is greater than 1, then greater than expected interactions are present in the mixture. (Gisi, Synergistic Interaction of Fungicides in Mixtures, The American Phytopathological Society, 86:11, 1273-1279,1996). Results
To assess the ability of mixtures of the invention to promote and synchronize bud break, these mixtures were applied to Prunus (stone fruit) plants in the greenhouse and examined for bud break (initiation of growth) and subsequent shoot development. Forchlorfenuron, Dormex (50% HC), 15-0-0 (Erger®) and 17-0-0 fertilizers (CAN17), and mixtures thereof were each applied individually or sequentially (co-applied) to the shoots of Prunus plants. Plants were evaluated for bud break at 28 days after treatment.

Concord grape vines [2] = assay: Example 1: bud break and shoot growth of potted Concord grape vines in greenhouse; settings: for Broken Buds/Plant / FW/Broken Bud: 51 days post-treatment; for FW/Plant: combined shoot fresh weight at 51 DAT; for 50% BB: days from application to 50% of the plants showing at least one bud broken; for 0-50% BB: days from bud break on the first plant to 50% of the plants with bud break, synchrony
Text: An aqueous 50% hydrogen cyanamide solution (Sigma-Aldrich, St. Louis, Mo. USA) was used as the source of hydrogen cyanamide (“HC”). The commercial product, Dormex® contains 50% hydrogen cyanamide (w/v) in an aqueous base.
Erger® was used as the source of 15-0-0 fertilizer. Erger® contains 15% total nitrogen as 3.1% ammoniacal nitrogen, 5.8% nitrate nitrogen, 6.1% urea nitrogen and 3.3% calcium derived from a mixture of ammonium nitrate, calcium nitrate and urea. Erger® is always used in combination with either 20% (w/v) Ca(NO3)2 or Activ Erger®. In the following examples, 15-0-0 fertilizer was applied at a rate of 208,340 ppm calcium nitrate, 15,060 ppm nitrogen nitrate and 15,660 ppm urea or 239,060 ppm total.
CAN-17 was used as the 17-0-0 fertilizer. CAN-17 contains 17% total nitrogen as 4.6% ammonium nitrogen and 11.6% nitrate nitrogen and 1.3% urea nitrogen and 8.8% calcium derived from ammonium nitrate and calcium nitrate. CAN-17 is available from J. R. Simplot Company (Boise, Id., USA). In the following examples, 17-0-0 fertilizer was applied at a rate of 118,200 ppm calcium nitrate and 78,900 ppm nitrogen nitrate or 197,100 ppm total. See, Table 1 below, for ratios of forchlorfenuron (“CPPU”) to fertilizer that were used in the following examples.
To assess the ability of mixtures of the invention to promote and synchronize bud break these mixtures were applied to Concord grape vines and examined for bud break (initiation of growth) and subsequent shoot development. Specifically, dormant bare-rooted Concord grape vines were planted in pots containing Pro-Mix® BX potting soil (Pro-Mix is a registered trademark of and available from Premier Horticulture Ltd.) and pruned to five nodes on a single shoot of one-year-old wood. Nodes are regions on the shoot where leaves arise from the shoot and buds are present at the axis of the shoot:leaf interface. The bud found at the shoot:leaf interface develops into the vines new shoot growth. Aqueous solutions of forchlorfenuron, HC, 15-0-0 fertilizer, 17-0-0 fertilizer, and mixtures thereof were each applied individually or sequentially or co-applied to the first-year wood of separate Concord grape vines. Plants were grown in a heated greenhouse for 49 days and evaluated for percent of vines showing bud break, periodically between seven days after application and the conclusion of the experiment. Percent bud break is determined by the number of plants that have at least one bud broken divided by the total number of plants per treatment times 100. At 51 days after treatment (“DAT”), the plants were sacrificed and measured for total number of flower clusters, total new shoot length, longest new shoot, combined new shoot fresh weight. New shoot growth is the growth arising from the dormant buds not including the woody growth that was planted and gave rise to the new growth.
as §1

Concord grape vines [3] = assay: Example 2: Concord grape vines greenhouse, forchlorfenuron and 17-0-0 fertilizer (CAN17) study; settings: for Fresh Weight at Harvest: combined shoot fresh weight, 52 days after planting; for 50% BB: days after treatment to 50% bud break; for Average Number of Broken Nodes Per Plant at Harvest: harvest 52 days after planting
Text: To assess the ability of mixtures of the invention to promote and synchronize bud break these mixtures were applied to Concord grape vines and examined for bud break (initiation of growth) and subsequent shoot development. Specifically, dormant bare-rooted Concord grape vines were planted in pots containing Pro-Mix® BX potting soil (Pro-Mix is a registered trademark of and available from Premier Horticulture Ltd.) and pruned to five nodes on a single shoot of one-year-old wood. Nodes are regions on the shoot where leaves arise from the shoot and buds are present at the axis of the shoot:leaf interface. The bud found at the shoot:leaf interface develops into the vines new shoot growth. Aqueous solutions of forchlorfenuron, HC, 15-0-0 fertilizer, 17-0-0 fertilizer, and mixtures thereof were each applied individually or sequentially or co-applied to the first-year wood of separate Concord grape vines. […] Percent bud break is determined by the number of plants that have at least one bud broken divided by the total number of plants per treatment times 100. […] New shoot growth is the growth arising from the dormant buds not including the woody growth that was planted and gave rise to the new growth.
as §1
The experiment from Example 1 was repeated with varying quantities of forchlorfenuron and fertilizers in a greenhouse experiment.

**Q.** Which results are given for `O=C(Nc1ccccc1)Nc1ccnc(Cl)c1` [CPPU, N-(2-Chloro-4-pyridyl)-N′-phenylurea]?
**A.** Fresh Weight at Harvest, FW ([1]; listed as CPPU 300 ppm): 1.34 grams; Fresh Weight at Harvest, FW ([1]; listed as CPPU 600 ppm): 4.91 grams; 50% BB ([1]; listed as CPPU 300 ppm): 14 days; 50% BB ([1]; listed as CPPU 600 ppm): 10 days; Percentage of Concord Grape Vines with Dormancy Relieved (Concord grape vines [2]; 31 days after treatment, plants with at least one bud showing a green shoot emerging, listed as CPPU 100 ppm): 25%; Percentage of Concord Grape Vines with Dormancy Relieved (Concord grape vines [2]; 31 days after treatment, plants with at least one bud showing a green shoot emerging, listed as CPPU 300 ppm): 12.5%; Percentage of Concord Grape Vines with Dormancy Relieved (Concord grape vines [2]; 31 days after treatment, plants with at least one bud showing a green shoot emerging, listed as CPPU 1000 ppm): 37.5%; Percentage of Concord Grape Vines with Dormancy Relieved (Concord grape vines [2]; 34 days after treatment, listed as CPPU 100 ppm): 50%; Percentage of Concord Grape Vines with Dormancy Relieved (Concord grape vines [2]; 34 days after treatment, listed as CPPU 300 ppm): 37.5%; Percentage of Concord Grape Vines with Dormancy Relieved (Concord grape vines [2]; 34 days after treatment, listed as CPPU 1000 ppm): 62.5%; Percentage of Concord Grape Vines with Dormancy Relieved (Concord grape vines [2]; 36 days after treatment, listed as CPPU 100 ppm): 50%; Percentage of Concord Grape Vines with Dormancy Relieved (Concord grape vines [2]; 36 days after treatment, listed as CPPU 300 ppm): 50%; Percentage of Concord Grape Vines with Dormancy Relieved (Concord grape vines [2]; 36 days after treatment, listed as CPPU 1000 ppm): 62.5%; Percentage of Concord Grape Vines with Dormancy Relieved (Concord grape vines [2]; 38 days after treatment, listed as CPPU 100 ppm): 50%; Percentage of Concord Grape Vines with Dormancy Relieved (Concord grape vines [2]; 38 days after treatment, listed as CPPU 300 ppm): 50%; Percentage of Concord Grape Vines with Dormancy Relieved (Concord grape vines [2]; 38 days after treatment, listed as CPPU 1000 ppm): 75%; Percentage of Concord Grape Vines with Dormancy Relieved (Concord grape vines [2]; 43 days after treatment, listed as CPPU 100 ppm): 75%; Percentage of Concord Grape Vines with Dormancy Relieved (Concord grape vines [2]; 43 days after treatment, listed as CPPU 300 ppm): 62.5%; Percentage of Concord Grape Vines with Dormancy Relieved (Concord grape vines [2]; 43 days after treatment, listed as CPPU 1000 ppm): 87.5%; Percentage of Concord Grape Vines with Dormancy Relieved (Concord grape vines [2]; 45 days after treatment, listed as CPPU 100 ppm): 75%; Percentage of Concord Grape Vines with Dormancy Relieved (Concord grape vines [2]; 45 days after treatment, listed as CPPU 300 ppm): 62.5%; Percentage of Concord Grape Vines with Dormancy Relieved (Concord grape vines [2]; 45 days after treatment, listed as CPPU 1000 ppm): 87.5%; Percentage of Concord Grape Vines with Dormancy Relieved (Concord grape vines [2]; 51 days after treatment, listed as CPPU 100 ppm): 87.5%; Percentage of Concord Grape Vines with Dormancy Relieved (Concord grape vines [2]; 51 days after treatment, listed as CPPU 300 ppm): 62.5%; Percentage of Concord Grape Vines with Dormancy Relieved (Concord grape vines [2]; 51 days after treatment, listed as CPPU 1000 ppm): 87.5%; Broken Buds/Plant (Concord grape vines [2]; listed as CPPU 100 ppm): 1.71; FW/Broken Bud (Concord grape vines [2]; listed as CPPU 100 ppm): 4.73 grams; Broken Buds/Plant (Concord grape vines [2]; listed as CPPU 300 ppm): 2.00; FW/Broken Bud (Concord grape vines [2]; listed as CPPU 300 ppm): 4.69 grams; Broken Buds/Plant (Concord grape vines [2]; listed as CPPU 1000 ppm): 1.29; FW/Broken Bud (Concord grape vines [2]; listed as CPPU 1000 ppm): 9.51 grams; FW/Plant (Concord grape vines [2]; listed as CPPU 100 ppm): 8.11 grams; FW/Plant (Concord grape vines [2]; listed as CPPU 300 ppm): 9.39 grams; FW/Plant (Concord grape vines [2]; listed as CPPU 1000 ppm): 12.22 grams; 50% BB (Concord grape vines [2]; listed as CPPU 100 ppm): 34 days; 50% BB (Concord grape vines [2]; listed as CPPU 300 ppm): 36 days; 50% BB (Concord grape vines [2]; listed as CPPU 1000 ppm): 34 days; 0-50% BB (Concord grape vines [2]; listed as CPPU 100 ppm): 10 days; 0-50% BB (Concord grape vines [2]; listed as CPPU 300 ppm): 7 days; 0-50% BB (Concord grape vines [2]; listed as CPPU 1000 ppm): 14 days; Fresh Weight at Harvest (Concord grape vines [3]; listed as CPPU 300 ppm): 14.30 grams; Fresh Weight at Harvest (Concord grape vines [3]; listed as CPPU 600 ppm): 15.10 grams; Fresh Weight at Harvest (Concord grape vines [3]; listed as CPPU 1000 ppm): 11.33 grams; 50% BB (Concord grape vines [3]; listed as CPPU 300 ppm): 31 days; 50% BB (Concord grape vines [3]; listed as CPPU 600 ppm): 35 days; 50% BB (Concord grape vines [3]; listed as CPPU 1000 ppm): 38 days; Average Number of Broken Nodes Per Plant at Harvest (Concord grape vines [3]; listed as CPPU 300 ppm): 1.86; Average Number of Broken Nodes Per Plant at Harvest (Concord grape vines [3]; listed as CPPU 600 ppm): 2.00; Average Number of Broken Nodes Per Plant at Harvest (Concord grape vines [3]; listed as CPPU 1000 ppm): 1.80
